Experimental data reported in EPA's ToxValDB 9.5 (doi:10.2903/j.efsa.2012.2927).
Structures can show the parent of a compound that is named as a salt.

Tested on: Rattus norvegicus
Details: oral, no effects
[1] = chronic, duration: 17 weeks, gavage
[2] = subchronic, duration: 90 days, diet
[3] = subchronic, duration: 90 days, drinking water

Row | SMILES | NOAEL [1] [mg/kg-day] | NOAEL [2] [mg/kg-day] | NOAEL [3] [mg/kg-day] | NOAEL (subchronic, duration: 90 days) [mg/kg-day]
1 | CCC(CC)C(=O)O [2-Ethylbutyric acid] | > 1000 | > 2500 | > 1450 | > 219
2 | CC(C)CO [2-Methyl-1-propanol] | > 1000 | > 2500 | > 1450 | > 219
3 | CCC(C)C=O (stereo unspecified) [2-Methylbutanal] | > 1000 | > 2500 | > 1450 | > 219
4 | CCC(C)COC(C)=O (stereo unspecified) [2-Methylbutyl acetate] | > 1000 | > 2500 | > 1450 | > 219
5 | CCC(C)COC(=O)CC(C)C (stereo unspecified) [2-Methylbutyl isovalerate] | > 1000 | > 2500 | > 1450 | > 219
6 | CCCC(C)C(=O)O (stereo unspecified) [2-Methylpentanoic acid] | > 1000 | > 2500 | > 1450 | > 219
7 | CC(C)C(=O)O [2-Methylpropanoic acid] | > 1000 | > 2500 | > 1450 | > 219
8 | CC(C)CC=O [3-Methylbutanal] | > 1000 | > 2500 | > 1450 | > 219
9 | CC(=O)OCCC(C)C [3-Methylbutyl acetate] | > 1000 | > 2500 | > 1450 | > 219
10 | CCC(=O)OCCC(C)C [3-Methylbutyl propanoate] | > 1000 | > 2500 | > 1450 | > 219
11 | CCC(C)C(=O)OCCC(C)C (stereo unspecified) [Butanoic acid, 2-methyl-, 3-methylbutyl ester] | > 1000 | > 2500 | > 1450 | > 219
12 | CCCC(=O)OCC(C)CC (stereo unspecified) [Butanoic acid, 2-methylbutyl ester] | > 1000 | > 2500 | > 1450 | > 219
13 | CC(C)COC(=O)CC(C)C [Butanoic acid, 3-methyl-, 2-methylpropyl ester] | > 1000 | > 2500 | > 1450 | > 219
14 | CCCC(=O)OCC(COC(=O)CCC)OC(=O)CCC [Glycerol tributyrate] | > 1000 | > 2500 | > 1450 | > 219
15 | CCCCCC(C)C(=O)O (stereo unspecified) [Heptanoic acid, 2-methyl-] | > 1000 | > 2500 | > 1450 | > 219
16 | CC(C)CCOC=O [Isoamyl formate] | > 1000 | > 2500 | > 1450 | > 219
17 | CC(=O)OCC(C)C [Isobutyl acetate] | > 1000 | > 2500 | > 1450 | > 219
18 | CCCC(=O)OCC(C)C [Isobutyl butyrate] | > 1000 | > 2500 | > 1450 | > 219
19 | CC(C)COC(=O)C(C)C [Isobutyl isobutyrate] | > 1000 | > 2500 | > 1450 | > 219
20 | CC(C)CCO [Isopentyl alcohol] | > 1000 | > 2500 | > 1450 | > 219
21 | CCCC(=O)OCCC(C)C [Isopentyl butyrate] | > 1000 | > 2500 | > 1450 | > 219
22 | CC(C)CCOC(=O)C(C)C [Isopentyl isobutyrate] | > 1000 | > 2500 | > 1450 | > 219
23 | CC(C)CC(=O)O [Isovaleric acid] | > 1000 | > 2500 | > 1450 | > 219
24 | CCCCC(C)CCC(=O)O (stereo unspecified) [Octanoic acid, 4-methyl-] | > 1000 | > 2500 | > 1450 | > 219
